Three compounds from patent US9012497B2, “Cyclohexyl carbamate compounds as active anti-cellulite ingredients” (Symrise AG, priority 2010, dated 2015) can be followed below.

Usually IC50 stands for the concentration that gives 50% inhibition. The term EC50 denotes the concentration at which the effect is half-maximal.

Assay [1] concerns 3T3-L1 cells. Put plainly: Adipogenesis assay (in vitro), Nile Red lipid staining. The format is cell-based. To be noted: Mus musculus, mean values of at least 2 independent tests, read-out: Adipogenesis inhibition IC50. As to the method: 3T3-L1 cells (mouse embryonic fibroblast-like adipocyte cell line) are seeded in a 48-well plate with collagen I-coating in a concentration of 3×10^4 cells/well. After 72 h cultivation at 37° C. and 5% CO2 in DMEM (Dulbecco's Modified Eagle Medium), enriched with 10% calf serum, various concentrations of the test substances in DMEM, enriched with 10% foetal calf serum and to which are added 1 μg/ml insulin, 0.25 μM dexamethasone and 0.5 mM IBMX (3-isobutyl-1-methylxanthine), are added and incubated for a further 48 h. A media change takes place, in that DMEM, enriched with 10% foetal calf serum and with 1 μg/ml insulin added, are applied. After renewed cultivation for 48 h, a further media change takes place, in which DMEM, enriched with 10% foetal calf serum, is applied.
After a further incubation for 72 h, the intracellularly stored lipids are quantified as a measure for the differentiation of the cells by measuring the fluorescence after staining of the lipids with the fluorescent dye Nile Red.
The inhibition of the adipogenesis in the presence of the test substances is calculated according to the following equation:
[formula] wherein RFU test substance=relative fluorescent units of the wells with test substance and with cells RFU control=relative fluorescent units of the wells without test substance, but with cells RFU control without cells=relative fluorescent units of the wells without test substance and without cells The IC50 is calculated from the adipogenesis inhibition [%] in a series of dilutions of tested samples. This is the concentration at which the adipogenesis is 50% inhibited.

A further assay addresses T1, pancreatic lipase (PL) (Sus scrofa, UniProt P00591).
T1 construct: purchased Sigma-Aldrich
T1 sequence (P00591 1-450): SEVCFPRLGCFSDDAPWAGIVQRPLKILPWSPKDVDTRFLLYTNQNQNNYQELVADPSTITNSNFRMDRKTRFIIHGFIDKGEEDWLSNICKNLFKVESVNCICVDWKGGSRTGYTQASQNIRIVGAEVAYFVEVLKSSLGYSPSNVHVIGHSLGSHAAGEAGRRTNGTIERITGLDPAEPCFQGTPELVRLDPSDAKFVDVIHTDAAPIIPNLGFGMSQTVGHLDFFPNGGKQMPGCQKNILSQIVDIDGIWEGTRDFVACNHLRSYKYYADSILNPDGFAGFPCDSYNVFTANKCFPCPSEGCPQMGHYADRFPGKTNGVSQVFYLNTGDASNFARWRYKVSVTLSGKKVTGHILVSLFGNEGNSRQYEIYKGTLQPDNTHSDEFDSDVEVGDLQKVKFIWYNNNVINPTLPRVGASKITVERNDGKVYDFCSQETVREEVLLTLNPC
Kind of assay: Inhibition of PL, MUF oleate hydrolysis. The format is biochemical. To be noted: mean values of at least 2 independent tests. The source says:
(§1) Lipogenesis is perceived as the storage of triglycerides in adipocytes. The inhibition of this storage can take place by means of the inhibition of the activity of extracellular lipoprotein lipase (LPL) in that the hydrolysis of extracellular triglycerides and therefore the absorption of free fatty acids by adipocytes are reduced. As a preliminary test, the inhibition of pancreatic lipase (PL) is investigated.
PL (Sigma-Aldrich), in the presence of test substances in different use concentrations has methylumbelliferyl oleate (MUF oleate) added as a substrate. Fluorescent methylumelliferon (MUF), is produced by hydrolysis of the MUF oleate by PL and is quantified. The inhibition of the hydrolysis of the MUF oleate is a measure of the inhibition of activity of the PL.
[formula] wherein MUF test substance=MUF concentration of the wells with test substance and with PL MUF control=MUF concentration of the wells without test substance, but with PL MUF control without PL=MUF concentration of the wells without test substance and without PL
The IC50 is calculated from the inhibition of the PL [%] in a series of dilutions of tested samples. This is the concentration, at which the activity of the PL is 50% inhibited.

Another assay has as its target T2, lipoprotein lipase (LPL) (Mus musculus, UniProt P11152).
T2 construct: endogenous in cells; host or cells: differentiated 3T3-L1 cells (mouse); heparin-released supernatant
T2 sequence (P11152 28-474): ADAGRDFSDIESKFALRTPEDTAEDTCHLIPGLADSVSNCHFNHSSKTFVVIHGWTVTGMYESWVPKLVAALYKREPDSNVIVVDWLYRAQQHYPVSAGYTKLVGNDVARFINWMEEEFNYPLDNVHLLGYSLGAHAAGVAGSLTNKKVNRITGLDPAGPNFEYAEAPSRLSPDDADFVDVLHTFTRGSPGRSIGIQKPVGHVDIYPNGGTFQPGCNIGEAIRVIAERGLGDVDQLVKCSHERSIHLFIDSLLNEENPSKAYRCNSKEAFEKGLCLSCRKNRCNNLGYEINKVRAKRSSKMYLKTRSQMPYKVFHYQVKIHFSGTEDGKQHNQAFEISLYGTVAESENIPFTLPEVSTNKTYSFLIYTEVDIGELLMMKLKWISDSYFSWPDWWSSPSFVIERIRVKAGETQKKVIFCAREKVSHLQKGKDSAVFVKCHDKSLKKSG
Kind of assay: Inhibition of LPL (lipogenesis assay), MUF oleate hydrolysis. The format is biochemical. The settings on record: LPL obtained from differentiated 3T3-L1 cells; mean values of at least 2 independent tests.
Excerpt: as §1
The results of the inhibition of the PL are used as a preliminary test and are confirmed on LPL. To obtain LPL, 3T3-L1 cells (mouse embryonic fibroblast-like adipocyte cell line) are seeded in a 6-well plate with collagen I-coating in a concentration of 3×10^5 cells/well. The cultivation and differentiation of the cells takes place analogously to the details in Example 2 (adipogenesis assay). During the differentiation LPL is increasingly expressed. The LPL is present in a membrane-bound state and is released by one hour incubation with heparin solution at 2-8° C. to the supernatant of the cells.
The LPL thus obtained, in the presence of test substances in different use concentrations, has methylumbelliferyl oleate (MUF oleate) added as the substrate. Fluorescent methylumbelliferyl (MUF) is produced by hydrolysis of the MUF oleate by LPL and is quantified. The inhibition of the hydrolysis of the MUF oleate is a measure of the inhibition of the activity of the LPL and therefore the lipogenesis.
[formula] wherein MUF test substance=MUF concentration of the wells with test substance and with LPL MUF control=MUF concentration of the wells without test substance, but with LPL MUF control without LPL=MUF concentration of the wells without test substance and without LPL
The IC50 is calculated from the inhibition of the LPL [%] in a series of dilutions of tested samples. This is the concentration at which the activity of the LPL and therefore the lipogenesis is 50% inhibited.

Assay [2] relates to 3T3-L1 cells. Put plainly: Lipolysis assay, in vitro on 3T3-L1 cells, free glycerol release. The format is cell-based. To be noted: Mus musculus; differentiated 3T3-L1 cells, about 20 hours of incubation; mean values from at least 2 independent tests; read-out: Stimulation of lipolysis EC50. As to the method: 3T3-L1 cells (mouse embryonic fibroblast-like adipocyte cell line) are seeded in a 48-well plate with collagen I-coating in a concentration of 3×10^4 cells/well. The cultivation and differentiation of the cells takes place analogously to the details in Example 2 (adipogenesis assay).
Various concentrations of the test substances are applied to the cells in DMEM, with bovine serum albumen added. After about 20 hours of incubation, the quantification of free glycerol in the supernatant of the cells takes place, which is released by the cells after hydrolysis of triglycerides in the cells and is a measure of the lipolysis of the cells. The quantification of the free glycerol is carried out based on an enzymatic method with a free glycerol reagent.
(§2) The stimulation of the lipolysis in the presence of test substances is calculated according to the following equation:
[formula] wherein A test substance=absorption of the wells with test substance and with cells A test substance without cells=absorption of the wells with test substance without cells (absorption control) A control=absorption of the wells without test substance, but with cells A control without cells=absorption of the wells without test substance and without cells
The EC50 is calculated from the lipolysis stimulation [%] in a series of dilutions of tested samples. This is the concentration at which the lipolysis is 50% stimulated.

The next assay concerns 3T3 cells. Kind of assay: ATP assay, inhibition of proliferation. The format is cell-based. The settings on record: Mus musculus, NIH3T3, 48 h, non-cytotoxic dilutions, mean values of at least 2 independent tests. As to the method: 3T3 cells (mouse […] fibroblasts) were seeded in 96-well plates. After 24 h cultivation at 37° C. and 5% CO2 in DMEM (Dulbecco's Modified Eagle Medium), cells were treated with test substances for another 48 h. […] ATP content in the cells is measured by
The inhibition of proliferation was calculated by:
[formula] wherein RLU test substance=relative luminescent units of the wells with test substance and with cells RLU control=relative luminescent units of the wells without test substance, but with cells RLU control without cells=relative luminescent units of the wells without test substance and without cells
The IC50 is calculated from the proliferation inhibition [%] in a series of non-cytotoxic dilutions of tested samples. This is the concentration at which the proliferation is 50% inhibited.

For assay [3], the system named is ex vivo pig skin model including subcutis fat layer. Kind of assay: Lipolysis assay, ex vivo pig skin model, free glycerol release. To be noted: conc. 0.1% in cosmetic test preparation, topical on ex vivo pig skin, 24 hours, versus placebo. The format is cell-based.
Excerpt: Full thickness pig skin patches (pig skin model including subcutis fat layer as described in EP 1 939 279) are excised from the dorsal part of young pig slaughtered for meat. The ex vivo pig skin models have a size of 7×3 mm (diameter×height). They are placed on a titanium grid dipped in culture medium. On top of the skin samples formulations are applied. In parallel to a cosmetic test preparation containing one or more compounds of formula (I) a placebo preparation without any compound of formula (I) is applied as reference (blank).
After 24 hours of incubation, the quantification of free glycerol in the medium surrounding the pig skin models was performed. The glycerol is released by the cells after hydrolysis of triglycerides in the cells of the adipose tissue and is a measure of the lipolysis of the pig skin models. The quantification of the free glycerol is carried out based on an enzymatic method with a free glycerol reagent.
Cosmetic Test Preparation:
Phases A and B are heated to 70° C. separately. Pemulen TR1 as well as Ultrez-21 are dispersed in phase B when heated to 70° C. Phase B/C is added to phase A by mixing with an Ultra Turrax, followed by emulsifying. Phase D is slowly added to phase A/B/C using a paddle mixer and a pH 5.5-6 is adjusted. The formulation is cooled down while mixing with a paddle mixer. Phase E is prepared by dissolving one or more compounds of formula (I) in Hydrolite-5. Subsequently, phase E is added to the mixture of phase A-D.
as §2
[formula] wherein A test substance=absorption of the wells with medium of ex vivo skin models, on which the formulation containing the test substance was applied A placebo=absorption of the wells with medium of ex vivo skin models, on which the placebo without test substance was applied

`CCC(C)NC(=O)OC1CC(C)CC(C)(C)C1` (centres unmarked) [BIO1844, sec-Butyl-carbamic acid 3,3,5-trimethyl-cyclohexyl ester]: the IC50 in the assay with 3T3-L1 cells [1] came to 89 µM; against pancreatic lipase (PL) it was 350 µM; at lipoprotein lipase (LPL), 720 µM; with 3T3 cells, 478 µM. In addition, in the assay on 3T3-L1 cells [2], the EC50 came out at 210 µM.

Take `CCc1ccc(NC(=O)OC2CC(C)CC(C)C2)cc1` (centres unmarked) [BIO1823, (4-Ethyl-phenyl)-carbamic acid 3,5-dimethyl-cyclohexyl ester]: the IC50 with 3T3-L1 cells [1] came out at 62 µM; in the assay on 3T3 cells it was 1390 µM. For the same compound, in the assay with 3T3-L1 cells [2], the EC50 is 460 µM. The compound also had a Stimulation of lipolysis in assay [3] of 28%.

On to `CCCCNC(=O)OC1CC(C)CC(C)(C)C1` (centres unmarked) [BIO1616, Butyl-carbamic acid 3,3,5-trimethyl-cyclohexyl ester], for which the IC50 with 3T3-L1 cells [1] came to 120 µM; at pancreatic lipase (PL), 900 µM; against lipoprotein lipase (LPL), 1020 µM; in the assay with 3T3 cells it was 220 µM. In addition, the EC50 with 3T3-L1 cells [2] worked out at 450 µM.
